# Measured values as given in patent US5576303A, “Energy-supplementing saccharide source and its uses” (priority 1993, dated 1996).
# Where two headings read alike, the source gives them in different places.
# Legend:
# [1] = Digestion test in vitro (enzyme derived from rat small intestinal mucous membrane); format: in vitro ADME; details: small intestinal mucosa enzyme, Tables 4 and 5, rat small intestinal enzyme, read-out: Decomposition rate
# Protocol: (§1) By using a trehalose solution of a high-purity hydrous crystalline trehalose prepared by the method in Experiment 1-2, a digestion test of trehalose was carried out in vitro in accordance with the method as reported by K. Okada et al. in JOURNAL OF JAPANESE SOCIETY OF NUTRITION AND FOOD SCIENCE, Vol.43, No.1, pp.23-29 (1990). The digestibility of trehalose was evaluated based on the decomposition rate (%) calculated by the following equation: [formula]
# As evident from the results in Table 4, trehalose was not substantially hydrolyzed by the enzyme derived from rat small intestinal mucous membrane. By using the rat enzyme, disaccharides were tested for their digestibility similarly as above.
# living bodies = details: prior art; cited from earlier work
# [2] = improper dose or route of administration; cited from earlier work
# rabbits [3] = details: rabbit
# Protocol: (§2) A hydrous crystalline trehalose prepared by the method in Experiment 1-2 was dissolved in a refined water, and the resultant solution was membrane filtered, concentrated and recrystallized to obtain a pyrogen-free hydrous crystalline trehalose. The crystal thus obtained was dissolved in injectable distilled water into a 10 w/v % solution isotonic to rabbit blood as trehalose infusion. By using 6 rabbits, about 2-3 kg weight, the infusion was rapidly administered to their ear veins at a dose of one g/kg body weight within 1.5 min, followed by collecting their blood at a prescribed time interval, and subjecting the collected blood samples to the measurements of their sugar levels (glucose concentration (mg/dl)) and insulin levels (μU/ml). As a control, 5 w/v % glucose solution isotonic to rabbit blood was similarly administered to rabbit veins at a dose of 0.5 g/kg body weight. Each result was expressed by the mean value of the 6 rabbits, and the time courses of the blood sugar- and insulin-levels of the rabbits were respectively shown in FIGS. 3 and 4. In the figures, the solid- and dashed-lines mean the time courses of trehalose and insulin in rabbit blood, respectively.
# rabbits [4] = details: rabbit; for amount secreted in urine (in words): in vivo
# [5] = Isotonicity to rabbit blood; format: physicochemical
# Protocol: as §2
# [6] = cited from earlier work
# [7] = Digestion test in vitro (salivary amylase); format: in vitro ADME; details: Table 4, salivary amylase, read-out: Decomposition rate
# Protocol: as §1
# [8] = Digestion test in vitro (gastric acid); format: in vitro ADME; details: Table 4, gastric acid, read-out: Decomposition rate
# Protocol: as §1
# [9] = Digestion test in vitro (pancreatic amylase); format: in vitro ADME; details: Table 4, pancreatic amylase, read-out: Decomposition rate
# Protocol: as §1
# human volunteers = experiment: Utilization test in vivo by oral administration (blood sugar and insulin levels)
# Protocol: In accordance with the method reported by H. Atsuji et al. in Journal of Clinical Nutrition, Vol.41, No.2, pp.200-208 (1972), 30 g of a hydrous crystalline trehalose prepared by the method in Experiment 1-2 was dissolved in water into a 20 w/v % aqueous trehalose solution, and prescribed amounts of which were orally administered to 6 male volunteers, 26-31-year-old. The volunteers were let blood at a prescribed time interval, and each blood sample was measured its blood sugar level, i.e. glucose concentration (mg/dl) and insulin level (μU/ml). As a control, glucose was used. The results of both levels were the mean values of 6 volunteers. FIGS. 1 and 2 show the time courses of blood sugar- and insulin-levels, respectively. In the figures, the solid- and dashed-lines mean the time courses of trehalose and insulin, respectively.
# Acute toxicity test = format: in vivo; details: mouse, in vivo; oral, mice; "the value was not so accurate"
# Protocol: (§3) By using mice, trehalose was tested for its acute toxicity by orally administering it to the mice a hydrous crystalline trehalose prepared by the method in Experiment 1-2. […] Based on the result, the LD50 was 50 g/kg or higher, though the value was not so accurate.
# mice = experiment: Acute toxicity test; format: in vivo; details: oral
# Protocol: as §3
# amylases = details: Japanese Patent Laid-Open No. 240,758/88; cited from earlier work
# [10] = 20 w/v % aqueous solution, 6 male volunteers, mean
smiles,measurement,setting,value
OC[C@H]1O[C@H](OC[C@H]2OC(O)[C@H](O)[C@@H](O)[C@@H]2O)[C@H](O)[C@@H](O)[C@@H]1O (some centres unmarked) [Isomaltose],metabolised,[1],13.2%
OC[C@@H](O)[C@@H](O[C@@H]1O[C@H](CO)[C@H](O)[C@H](O)[C@H]1O)[C@H](O)[C@@H](O)CO [lactitol],metabolism and utilization by living bodies,living bodies,not readily metabolized and utilized by living bodies
OC[C@@H](O)[C@H](O)[C@@H](O)CO [xylitol],diarrhea,[2],may cause serious diarrhea
OC[C@H]1O[C@@H](O[C@H]2[C@H](O)[C@@H](O)C(O)O[C@@H]2CO)[C@H](O)[C@@H](O)[C@H]1O (some centres unmarked) [Lactose],metabolised,[1],9.7%
OC[C@@H](O)[C@@H](O[C@H]1O[C@H](CO)[C@@H](O)[C@H](O)[C@H]1O)[C@H](O)[C@@H](O)CO [maltitol],metabolism and utilization by living bodies,living bodies,not readily metabolized and utilized by living bodies
"O=C[C@H](O)[C@@H](O)[C@H](O)[C@H](O)CO [glucose, reference compound]",amount secreted in urine (in words),rabbits [3]; in vivo,absolutely low
same,amount secreted in urine (in words),rabbits [4],absolutely low
same,concentration isotonic to rabbit blood,[5],5 w/v %
OC[C@H]1O[C@@](CO)(O[C@H]2O[C@H](CO)[C@@H](O)[C@H](O)[C@H]2O)[C@@H](O)[C@@H]1O [Sucrose],metabolised,[1],25.1%
same,hydrolysis under acidic conditions,[6],readily hydrolyzed
OC[C@H]1O[C@@H](O[C@H]2[C@H](O)[C@@H](O)C(O)O[C@@H]2CO)[C@H](O)[C@@H](O)[C@@H]1O (some centres unmarked) [Cellobiose],metabolised,[1],1.2%
OC[C@H]1O[C@H](O[C@H]2[C@H](O)[C@@H](O)[C@H](O)O[C@@H]2CO)[C@H](O)[C@@H](O)[C@@H]1O (mixture of isomers) [Maltose],metabolised,[1],80.1%
OC[C@@H](O)[C@@H](O)[C@H](O)[C@@H](O)CO [sorbitol],diarrhea,[2],may cause serious diarrhea
"OC[C@H]1O[C@H](O[C@H]2O[C@H](CO)[C@@H](O)[C@H](O)[C@H]2O)[C@H](O)[C@@H](O)[C@@H]1O [trehalose, O-α-D-glucopyranosyl α-D-glucopyranoside]",metabolised,[7],0%
same,degraded,[8],0%
same,metabolised,[9],0%
same,metabolised,[1],1.3%
same,"assimilation, metabolism and utilization",human volunteers,"readily assimilated, metabolized and utilized by living bodies as energy source"
same,time of maximum of blood sugar level after administration,human volunteers; [10],30 to 45 min
same,time of maximum of insulin level after administration,human volunteers; [10],30 to 45 min
same,dynamics of blood sugar- and insulin-levels against glucose,human volunteers; FIGS. 1 and 2,tended to show a time lag
same,"hydrolysis, metabolism and utilization in vivo",rabbits [3],"readily hydrolyzed into glucose in vivo, metabolized and utilized by living bodies as energy source"
same,amount secreted in urine (in words),rabbits [3]; in vivo,absolutely low
same,dynamics of blood sugar- and insulin-levels against glucose,rabbits [3]; in vivo,tended to show a time lag
same,"hydrolysis, metabolism and utilization in vivo",rabbits [4],"readily hydrolyzed into glucose in vivo, metabolized and utilized by the living bodies as energy source"
same,amount secreted in urine (in words),rabbits [4],absolutely low
same,LD50,Acute toxicity test,≥ 50000 mg/kg
same,toxicity (in words),mice,relatively-low toxicity
same,mortality,mice; highest possible dose,no mouse died
same,concentration isotonic to rabbit blood,[5],10 w/v %
same,metabolism and utilization by living bodies,living bodies,not substantially assimilated and utilized by the body
same,hydrolysis by amylases,amylases,not substantially hydrolyzed by amylases
